US20220002307A1, “FGFR4 INHIBITOR AND USE THEREOF” (BETTA PHARMACEUTICALS CO., LTD, priority 2018, published 2022)

Experiments:
tyrosine kinase FGFR4 = tyrosine kinase FGFR4 (Homo sapiens, UniProt P22455); test: Kinase assay (mobility shift assay), FGFR4; type: biochemical; settings: compound and enzyme incubated for 60 mins
Protocol: (§1) The effect of the compounds of the present invention on the activity of tyrosine kinase FGFR4 was evaluated with in vitro kinase detection experiment. The mobility shift assay was used in the experiment, and a fluorescently labeled polypeptide was used as the substrate, the substrate was transformed into a product under the action of the enzyme in the reaction system, and its charge has also changed accordingly. This method can use the difference between the charge of the substrate and the product to separate them, and then detect them separately.
(§2) DMSO solution of compound (300 μM) was diluted to a 100-fold final concentration of DMSO solution in a 384-well plate, 3-fold dilution, 250 nL of the compound with 100-fold final concentration was transferred to the target plate OptiPlate-384F by a dispenser Echo 550. The final concentration of the compound were 3000 nM, 1000 nM, 333.3 nM, 111.1 nM, 37.04 nM, 12.35 nM, 4.115 nM, 1.372 nM, 0.4572 nM, 0.1524 nM, the compound and the enzyme were incubated for 60 mins,
(§3) Prepared 1× kinase buffer, used the 1× kinase buffer to prepare 2.5 fold final concentration of kinase solution, 10 μL of 2.5 fold final concentration kinase solution was added to the compound well and the positive control well respectively, and 10 μL of 1× kinase buffer was added to the negative control well. After centrifugation, the reaction plate was shaken and mixed and incubated at room temperature for 60 mins, a mixture of 25/15 fold final concentration of adenosine triphosphate (ATP) and kinase substrate 22 was prepared with 1× kinase buffer. 15 μL of 25/15 fold final concentration of ATP and substrate mixed solution was added to start the reaction, 384-well plate was centrifuged, mixed, and then incubated at room temperature for 30 minutes, 30 μL of the stop detection solution was added to stop the kinase reaction, and the conversion rate was readed with Caliper EZ Reader after centrifugation and mixing;
(§4) wherein: Conversion %_sample was the conversion rate of the sample; Conversion %_min was the average value of the negative control well, which represent the conversion rate of the well without enzyme activity, Conversion %_max was the average value of the positive control well, which represent the conversion rate of the well without compound inhibition.
(§5) Take the log value of the concentration as the X axis, the percentage inhibition rate as the Y axis, and use GraphPad Prism's log(inhibitor) vs. response-Variable slope (four parameters) of the analysis software to fit the dose-response curve to obtain the IC50 value of each compound on the enzyme. The formula is as follows: Y=Bottom+(Top−Bottom)/(1+10^((Log IC50−X)*HillSlope)).

FGFR1 = FGFR1 (Homo sapiens, UniProt P11362); test: Kinase assay (mobility shift assay), FGFR1; type: biochemical; settings: compound and enzyme incubated for 60 mins
FGFR1, sequence (P11362 22-822): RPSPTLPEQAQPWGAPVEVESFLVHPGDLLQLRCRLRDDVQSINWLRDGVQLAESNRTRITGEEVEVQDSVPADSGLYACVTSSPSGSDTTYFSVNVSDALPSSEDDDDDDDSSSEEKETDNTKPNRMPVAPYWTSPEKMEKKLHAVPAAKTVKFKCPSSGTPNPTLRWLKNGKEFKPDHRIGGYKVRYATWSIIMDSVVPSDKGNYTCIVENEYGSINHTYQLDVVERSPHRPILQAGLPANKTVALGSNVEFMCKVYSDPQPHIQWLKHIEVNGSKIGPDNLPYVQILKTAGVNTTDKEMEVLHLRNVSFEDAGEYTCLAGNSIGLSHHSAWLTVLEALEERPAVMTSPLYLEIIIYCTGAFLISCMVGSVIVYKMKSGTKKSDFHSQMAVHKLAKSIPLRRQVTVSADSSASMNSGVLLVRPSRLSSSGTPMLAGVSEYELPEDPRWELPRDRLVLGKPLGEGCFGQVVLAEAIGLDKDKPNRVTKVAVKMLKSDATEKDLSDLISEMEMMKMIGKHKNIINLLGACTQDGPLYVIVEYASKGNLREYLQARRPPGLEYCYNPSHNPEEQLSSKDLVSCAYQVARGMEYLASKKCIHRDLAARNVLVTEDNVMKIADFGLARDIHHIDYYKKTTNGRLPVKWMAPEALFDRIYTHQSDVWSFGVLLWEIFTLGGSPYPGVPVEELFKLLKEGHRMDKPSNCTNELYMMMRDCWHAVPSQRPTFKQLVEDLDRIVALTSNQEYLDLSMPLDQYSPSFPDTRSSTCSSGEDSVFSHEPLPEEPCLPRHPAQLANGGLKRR
Protocol: [The source words this procedure for another target and reports this target under the same test.] as §1, §2, §3, §4, §5

[1] = system: human hepatocarcinoma cells Hep3B; test: Xenograft tumor model; type: in vivo; settings: for inhibitory rate on tumor volume growth of Hep3B (TGI): BID×14; for inhibitory rate of tumor weight growth (TGI): BID×14, tumor weight after the last dose; for body weight (routine determination of toxicity): during the entire experiment, at the treatment doses
Protocol: BALB/c nu/nu female mice were inoculated subcutaneously in the right anterior scapula of 5×10^6 human hepatocarcinoma cells Hep3B, and the volume ratio of cell suspension to matrigel was 1:1 (0.2/mL/mouse). The mice were grouped according to tumor size until the average tumor volume was 158 mm^3. The treatment group was given a test compound solution prepared with an appropriate solvent, and the solvent control group was given a blank solvent. During the treatment, the tumor volume was measured twice a week, and the tumor weight was measured after the last dose to determine the compound activity. The tumor growth inhibition rate (%, TGI) was calculated by comparing the tumor volume and weight of the treatment group and the solvent control group. Body weight measurement, as a routine determination of toxicity, has the same frequency as the tumor volume measurement.

[2] = system: human liver cancer cells Hep3B cells; test: Cell proliferation assay (CellTiter-Glo); type: cell-based; settings: 96 hrs incubation, CTG detection, read-out: IC50(nM) of the compound on Hep3B cells
Text: In vitro cell assay was used to measure the effects of the compound of the present invention on the proliferation of human liver cancer cells Hep3B cells. The CELL TITER-GLO (CTG) luminescent was used as detection method in the assay, which can detect the number of living cells by quantitatively determining ATP. Because ATP participates in a variety of enzymatic reactions in organisms, it is an indicator of the metabolism of living cells, and its content directly reflects the number and cell state of cells, during the experiment, add CellTiter-Glo™ reagent to the cell culture medium to measure the luminescence, the luminescence value is directly proportional to the amount of ATP, and ATP is positively related to the number of living cells, so cell viability can be inspected by detecting the ATP content.
Take a bottle of Hep3B cells in logarithmic growth phase, the cells were counted after digestion and resuspension, and then were adjusted the cell density and seeded at 180 μL per well (1500 cells/well) into a 96-well plate, the plate was incubated for 24 hrs in 37° C. 5% CO2 incubator;
The 600 μM test substance dissolved in DMSO was diluted with DMSO in a 1:3 ratio to a 200-fold final concentration solution, then the cell culture medium was diluted 20 fold (10×), and 20 μL of the compound solution was added to the 96 wells containing cells in the plate, the final concentration of the compound from high to low was 3000 nM, 1000 nM, 333.3 nM, 111.1 nM, 37.04 nM, 12.35 nM, 4.115 nM, 1.372 nM, 0.4572 nM, and the well plate was placed in a 37° C. 5% CO2 incubator for 96 hrs;
After 96 hrs of incubation, 60 μL of CellTiter-Glo® Luminescent Cell Viability Assay solution was added to each well, gently shaked for 2 mins, continued incubating for 10 mins at room temperature, and the luminescence value of each well on the multifunctional microplate reader was readed.
Calculated the inhibition rate base on the luminous value,
Inhibition rate %=(blank group value−administration group value)/(blank group value−apoptosis group value)*100
The log value of the concentration was used as the X axis, and the percentage inhibition rate was used as the Y axis. Log (inhibitor) vs. response-Variable slope (four parameters) of GraphPad Prism's was used to fit the dose-response curve, and the IC50 of the compound to inhibit cell proliferation was calculated.

tyrosine kinase FGFR4, sequence (P22455 22-802): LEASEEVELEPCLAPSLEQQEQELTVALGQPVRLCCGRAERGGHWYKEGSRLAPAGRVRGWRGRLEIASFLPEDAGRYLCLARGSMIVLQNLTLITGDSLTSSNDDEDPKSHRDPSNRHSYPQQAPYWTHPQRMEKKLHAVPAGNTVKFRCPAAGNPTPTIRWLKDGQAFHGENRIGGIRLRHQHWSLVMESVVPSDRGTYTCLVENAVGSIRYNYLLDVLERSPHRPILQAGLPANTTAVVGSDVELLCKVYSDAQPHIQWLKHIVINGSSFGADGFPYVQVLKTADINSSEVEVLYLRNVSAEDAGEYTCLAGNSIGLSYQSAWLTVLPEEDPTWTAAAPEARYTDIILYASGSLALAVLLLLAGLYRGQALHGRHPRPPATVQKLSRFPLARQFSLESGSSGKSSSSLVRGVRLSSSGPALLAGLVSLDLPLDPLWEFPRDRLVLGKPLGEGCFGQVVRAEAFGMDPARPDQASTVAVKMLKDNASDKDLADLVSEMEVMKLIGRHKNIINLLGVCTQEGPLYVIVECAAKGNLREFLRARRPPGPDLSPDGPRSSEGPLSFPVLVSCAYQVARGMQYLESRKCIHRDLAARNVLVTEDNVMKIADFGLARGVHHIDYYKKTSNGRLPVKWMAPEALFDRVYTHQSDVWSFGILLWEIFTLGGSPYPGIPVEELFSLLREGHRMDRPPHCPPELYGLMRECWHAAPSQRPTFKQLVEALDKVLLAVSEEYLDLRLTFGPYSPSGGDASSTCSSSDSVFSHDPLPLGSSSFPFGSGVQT

IC50 (tyrosine kinase FGFR4) [nM] | IC50 (FGFR1) [nM] | IC50 [2] [nM] | Compound | also measured
5.2 | 1000 | – | C=CC(=O)N[C@H]1CCOC[C@H]1Nc1ncc2c(n1)-c1ccc(C)nc1N(c1c(Cl)c(OC)cc(OC)c1Cl)C2 [Compound 15, N-((3S,4S)-3-((6-(2,6-dichloro-3,5-dimethoxyphenyl)-8-methyl-5,6-dihydropyrimido[5,4-c][1,8]naphthyridin-2-yl)amino)tetrahydro-2H-pyran-4-yl)acrylamide] | –
10 | 912 | – | C=CC(=O)N[C@H]1CCOC[C@H]1Nc1ncc2c(n1)-c1cccnc1N(c1c(Cl)c(OC)cc(OC)c1Cl)C2 [Compound 2, N-((3S,4S)-3-((6-(2,6-dichloro-3,5-dimethoxyphenyl)-5,6-dihydropyrimido[5,4-c][1,8]naphthyridin-2-yl)amino)tetrahydro-2H-pyran-4-yl)acrylamide] | –
– | – | > 3000 | C=CC(=O)N[C@H]1CCOC[C@H]1Nc1ncc2c(=O)n(-c3c(Cl)c(OC)cc(OC)c3Cl)c3ncccc3c2n1 [Compound 3, N-((3S,4S)-3-((6-(2,6-dichloro-3,5-dimethoxyphenyl)-5-oxo-5,6-dihydropyrimido[5,4-c][1,8]naphthyridin-2-yl)amino)tetrahydro-2H-pyran-4-yl)acrylamide] | –
9.4 | – | 6.9 | C=CC(=O)Nc1cc(N2CCC(N3CCOCC3)CC2)ccc1Nc1ncc2c(n1)-c1cccnc1N(c1c(Cl)c(OC)cc(OC)c1Cl)C2 [Compound 1, N-(2-((6-(2,6-dichloro-3,5-dimethoxyphenyl)-5,6-dihydropyrimido[5,4-c][1,8]naphthyridin-2-yl)amino)-5-(4-morpholinopiperidin-1-yl)phenyl)acrylamide] | –
– | – | 1030 | C=CC(=O)NC1CCOCC1Nc1ncc2c(=O)n(-c3c(Cl)c(OC)cc(OC)c3Cl)c3ncc(Cl)cc3c2n1 (stereo not shown) [Compound 34, N-(3-((9-chloro-6-(2,6-dichloro-3,5-dimethoxyphenyl)-5-oxo-5,6-dihydropyrimido[5,4-c][1,8]naphthyridin-2-yl)amino)tetrahydro-2H-pyran-4-yl)acrylamide] | –
2.6 | 1440 | 18.7 | C=CC(=O)N[C@H]1CCOC[C@H]1Nc1ncc2c(n1)-c1cc(C)cnc1N(c1cc(OC)cc(OC)c1Cl)C2 [Compound 14, N-((3S,4S)-3-((6-(2-chloro-3,5-dimethoxyphenyl)-9-methyl-5,6-dihydropyrimido[5,4-c][1,8]naphthyridin-2-yl)amino)tetrahydro-2H-pyran-4-yl)acrylamide] | –
– | – | 524 | C=CC(=O)N[C@H]1CCOC[C@H]1Nc1ncc2cc(-c3c(Cl)c(OC)cc(OC)c3Cl)c3nncn3c2n1 [Compound 33, N-((3S,4S)-3-((6-(2,6-dichloro-3,5-dimethoxyphenyl)-[1,2,4]triazolo[4′,3′:1,6]pyrido[2,3-d]pyrimidin-2-yl)amino)tetrahydro-2H-pyran-4-yl)acrylamide] | –
1.8 | 741 | 9.9 | C=CC(=O)N[C@H]1CCOC[C@H]1Nc1ncc2c(n1)-c1cc(Cl)cnc1N(c1c(Cl)c(OC)cc(OC)c1Cl)C2 [Compound 28, N-((3S,4S)-3-((9-chloro-6-(2,6-dichloro-3,5-dimethoxyphenyl)-5,6-dihydropyrimido[5,4-c][1,8]naphthyridin-2-yl)amino)tetrahydro-2H-pyran-4-yl)acrylamide] | –
1.8 | 1530 | 10.6 | C=CC(=O)N[C@H]1CCOC[C@H]1Nc1ncc2c(n1)-c1cc(F)cnc1N(c1c(Cl)c(OC)cc(OC)c1Cl)C2 [Compound 11, N-((3S,4S)-3-((6-(2,6-dichloro-3,5-dimethoxyphenyl)-9-fluoro-5,6-dihydropyrimido[5,4-c][1,8]naphthyridin-2-yl)amino)tetrahydro-2H-pyran-4-yl)acrylamide] | –
13 | 1480 | 62.7 | C=CC(=O)N[C@H]1CCOC[C@H]1Nc1ncc2cc(-c3c(Cl)c(OC)cc(OC)c3Cl)ccc2n1 [BLU554, reference compound] | –

Compound | IC50 (tyrosine kinase FGFR4) [nM] | IC50 (FGFR1) [nM] | IC50 [2] [nM] | also measured
C=CC(=O)N[C@H]1CCOC[C@H]1Nc1ncc2c(n1)-c1cc(C)cnc1N(c1c(Cl)c(OC)cc(OC)c1Cl)C2 [Compound 13, N-((3S,4S)-3-((6-(2,6-dichloro-3,5-dimethoxyphenyl)-9-methyl-5,6-dihydropyrimido[5,4-c][1,8]naphthyridin-2-yl)amino)tetrahydro-2H-pyran-4-yl)acrylamide] | 1 | 367 | 5.1 | inhibitory rate on tumor volume growth of Hep3B (TGI) ([1]; 50 mg/kg): 73.02%; inhibitory rate of tumor weight growth (TGI) ([1]; 50 mg/kg): 84.76%; inhibitory rate on tumor volume growth of Hep3B (TGI) ([1]; 100 mg/kg): 86.26%; inhibitory rate of tumor weight growth (TGI) ([1]; 100 mg/kg): 92.27%; inhibitory rate on tumor volume growth of Hep3B (TGI) ([1]; 200 mg/kg): 90.26%; inhibitory rate of tumor weight growth (TGI) ([1]; 200 mg/kg): 98.15%; body weight (routine determination of toxicity) [1]: did not show obvious weight losses
C=CC(=O)N[C@H]1CCOC[C@H]1Nc1ncc2c(n1)-c1cc(C(F)(F)F)cnc1N(c1c(Cl)c(OC)cc(OC)c1Cl)C2 [Compound 16, N-((3S,4S)-3-((6-(2,6-dichloro-3,5-dimethoxyphenyl)-9-(trifluoromethyl)-5,6-dihydropyrimido[5,4-c][1,8]naphthyridin-2-yl)amino)tetrahydro-2H-pyran-4-yl)acrylamide] | 3.6 | 166 | 14.5 | inhibitory rate on tumor volume growth of Hep3B (TGI) ([1]; 50 mg/kg): 78.37%; inhibitory rate of tumor weight growth (TGI) ([1]; 50 mg/kg): 83.85%; body weight (routine determination of toxicity) [1]: did not show obvious weight losses
